Laboratory results from US8829202B2, “Condensed polycyclic aromatic compound, aromatic polymer, and method for synthesizing aromatic compound” (Teijin Limited, priority 2011, dated 2014).
Several values for one entry are separate records, joined by “and”; a condition that tells them apart may be missing. Identical values can stand only once.

Experiment: Solubility of the obtained compound in chloroform
Assay type: physicochemical
Conditions: solvent chloroform

**Q.** Which solubility in chloroform does the source give for `CCCCCCCCC#Cc1c2ccccc2cc2sc3c(sc4cc5ccccc5c(C#CCCCCCCCC)c43)c12` [di-1-dysine-substituted DNTT, Di-1-dysine-substituted dinaphthothienothiophene] here?
**A.** The solubility in chloroform was 2.3 wt %.

**Q.** With `CC[Si](C#Cc1c2ccccc2cc2sc3c(sc4cc5ccccc5c(C#C[Si](CC)(CC)CC)c43)c12)(CC)CC` [Di-triethylsilylacetylene-substituted DNTT] as the compound, how does the solubility in chloroform read?
**A.** The solubility in chloroform was 0.10 wt % and 0.13 wt %.

**Q.** With `CCCCCCCCCCc1c2ccccc2cc2sc3c(sc4cc5ccccc5c(CCCCCCCCCC)c43)c12` [di-decane-substituted DNTT] as the compound, how does the solubility in chloroform read?
**A.** Its solubility in chloroform is 0.05 wt %.

**Q.** For `C[Si](C)(C)C#Cc1c2ccccc2cc2sc3c(sc4cc5ccccc5c(C#C[Si](C)(C)C)c43)c12` [Di-trimethylsilylacetylene-substituted DNTT], which solubility in chloroform is on record?
**A.** The solubility in chloroform was 0.05 wt %.

**Q.** With “Di-triisopropylsilylethane-substituted DNTT” as the compound, how does the solubility in chloroform read?
**A.** The solubility in chloroform was 0.51 wt %.

**Q.** With “Di-triisopropylsilylacetylene-substituted dinaphthothienothiophene [di-TIPS-substituted DNTT]” as the compound, how does the solubility in chloroform read?
**A.** The solubility in chloroform was 0.2 wt %.

**Q.** For `CCCCCCCCCCCCC#Cc1c2ccccc2cc2sc3c(sc4cc5ccccc5c(C#CCCCCCCCCCCCC)c43)c12` [di-1-tetradysine-substituted DNTT, di-1-tetradecyne-substituted DNTT], which solubility in chloroform is on record?
**A.** Its solubility in chloroform is 6.5 wt %.

Same assay, conditions: solvent chloroform; DNTT used as raw material

**Q.** Which “solubility in chloroform (in words)” value does the source give for `c1ccc2cc3c(cc2c1)sc1c2cc4ccccc4cc2sc31` [DNTT, Dinaphthothienothiophene, reference compound] here?
**A.** The value was “substantially not dissolved”.

Same assay, conditions: solvent chloroform; listed as di-1-tetradesyne-substituted DNTT

**Q.** For `CCCCCCCCCCCCC#Cc1c2ccccc2cc2sc3c(sc4cc5ccccc5c(C#CCCCCCCCCCCCC)c43)c12` [di-1-tetradysine-substituted DNTT, di-1-tetradecyne-substituted DNTT], which solubility in chloroform is on record?
**A.** The solubility in chloroform was 1.67 wt %.
